From patent publication US7635592B2, “Tissue engineering scaffolds promoting matrix protein production” (Rice University, priority 2000, dated 2009)

Tests used:
SMCs [1] = test: Matrix protein production on peptide-modified glass surfaces (3H-glycine incorporation into ECM); type: cell-based, Wistar-Kyoto rats; details: for increase in matrix production per cell over that produced when no TGF-β was added: 0.04 pmol/ml (1 ng/ml) soluble TGF-β in the media, 2 days
Source text: (§1) Chemicals were obtained from Sigma Chemical Co. (St. Louis, Mo.) unless otherwise stated. SMCs from the thoracic aorta of Wistar-Kyoto rats were isolated and characterized as previously described by Scott-Burden, et al., Hypertension 13:295-305 (1989). Human aortic smooth muscle cells (HASMCs) were obtained from Clonetics (San Diego, Calif.). Both SMCs and HASMCs were maintained on Minimal Essential Medium Eagle supplemented with 10% fetal bovine serum (FBS; BioWhittaker, Walkersville, Md.), 2 mM L-glutamine, 500 units penicillin and 100 mg/l streptomycin (MEM). Cells were incubated at 37° C. in a 5% CO2 environment.
Peptides used in this study were RGDS (SEQ ID NO:1), VAPG (SEQ ID NO:2), and KQAGDV (SEQ ID NO:3) (Research Genetics, Huntsville, Ala.). RGES (SEQ ID NO:4) was used as a non-adhesive control peptide. The peptides were acetylated and coupled to aminophase glass slides as previously described by Mann, et al., Biomaterials 20:2281-2286 (1999). Briefly, aminophase slides were prepared by incubating glass slides with 3-aminopropyltriethoxysilane in dry acetone at 37° C. overnight. Acetylated peptides were then coupled to the slides using 1-ethyl-3-(3-dimethylaminopropyl) carbodiimide (EDAC) chemistry. Slides were sterilized under UV light overnight prior to use.
Matrix protein production was evaluated as previously described by Mann (1999). Suspensions of SMCs were prepared in MEM supplemented with 5 μg/ml ascorbic acid at a concentration of 40,000 cells/ml. For samples receiving TGF-β, 0.04 pmol/ml (1 ng/ml) unmodified TGF-β or 0.04 pmol/ml acryloyl-PEG-TGF-β was added to the media. Cell suspensions to be used for measurement of ECM protein production were also supplemented with 1 μCi/ml ^3H-glycine (40 Ci/mmol). The glass slides were attached to FlexiPerm strips in QuadriPerm Cell Culture Vessels (Heraeus, Osterode am Harz, Germany) to create eight wells (1.11×0.79×0.79 cm) on each slide. Four of the wells on each slide were utilized to measure ECM production, while the remaining four wells were utilized for cell number determination and were cultured in the absence of ^3H-glycine. Cell number was determined after 2 days of culture by preparing single cell suspensions using trypsin and counting cells using a Coulter counter (Multisizer #0646, Coulter Electronics, Hialeah, Fla.).
To evaluate synthesis of ECM proteins, the cell growth media was supplemented with ^3H-glycine, as described above. Two days following ^3H-glycine addition, cells were removed non-enzymatically with 25 mM ammonium hydroxide, then rinsed with 70% ethanol and dried. This process leaves intact the ECM elaborated by cells during culture (Jones, et al., Proc. natl. Acad. Sci. USA 76:353-357 (1979)). Sequential enzyme digestion was used as previously described by Mann (1999) to determine the gross composition of the ECM proteins. Briefly, the ECM was digested first with trypsin, followed by elastase, and then collagenase. After the final enzymatic digestion, any material remaining on the substrate was dissolved by incubation with 1 N NaOH. Aliquots were taken from each step of the digest for scintillation counting.

SMCs [2] = test: DNA and hydroxyproline determination in RGDS-containing PEG hydrogels seeded with SMCs; type: cell-based, Wistar-Kyoto rats; details: 0.04 pmol/ml, 7 days of culture
Source text: as §1, with “environment. […]” for “environment.”
After 7 days of culture, hydrogels were removed from the culture media, weighed, and digested with 1 ml 0.1 N NaOH overnight at 37° C. […] DNA content of the digested, neutralized hydrogels was determined using a fluorescent DNA binding dye, Hoechst 33258 (Molecular Probes, Eugene, Oreg.). Fluorescence of the samples was determined using a fluorometer (VersaFluor, Bio-Rad Laboratories, Hercules, Calif.) with excitation filter at 360 nm and emission filter at 460 nm, and compared to fluorescence of calf thymus DNA standards.
Hydroxyproline concentration was determined by oxidation with chloramine T (ICN Biomedicals, Aurora, Ohio) and development with p-dimethylaminobenzaldehyde (ICN Biomedicals) (Woessner, et al. Arch. Biochem. Biophys. 93:440-447 (1961)). […]

[3] = system: Aortic smooth muscle cells; test: Dose response of aortic smooth muscle cells to TGF-β on RGDS-coupled aminophase glass; type: cell-based
Protocol: Aortic smooth muscle cells were grown on aminophase glass that had 0.5 nmol/cm^2 RGDS (SEQ ID NO:1) covalently coupled to the glass. TGF-β was added to the media at 0, 1, or 5 ng/ml (0, 4×10^−5, 2×10^−4 nmol/ml). ECM protein production by the cells over a 2-day time period was determined by examining the amount of ^3H-glycine incorporated into the ECM elaborated by the cells.

Auricular chondrocytes [4] = test: Dose response of auricular chondrocytes to TGF-β on tissue culture polystyrene; type: cell-based
Protocol: Auricular chondrocytes were grown on tissue culture polystyrene with varying amounts of TGF-β added to the media: 0, 1, 5, 10, 25, or 100 ng/ml. ECM protein production by the cells over a 2-day time period was determined by examining the amount of ^3H-glycine incorporated into the ECM elaborated by the cells.

[5] = system: Aortic smooth muscle cells; test: Matrix production in the presence of ascorbic acid, aortic smooth muscle cells; type: cell-based; details: SMCs
Protocol: (§2) Aortic smooth muscle cells and auricular chondrocytes were grown on tissue culture polystyrene with and without 50 μg/ml ascorbic acid added to the media. ECM protein production by the cells over a 2-day time period was determined by examining the amount of ^3H-glycine incorporated into the ECM elaborated by the cells.

Auricular chondrocytes [6] = test: Matrix production in the presence of ascorbic acid, auricular chondrocytes; type: cell-based
Protocol: as §2

[7] = RGDS-modified glass surfaces, 0.04 pmol/ml in the media
[8] = 50 μg/ml ascorbic acid in the media, 2 days
[9] = 50 μg/ml ascorbic acid, over 2 days

Compound | increase in matrix production per cell over that produced when no TGF-β was added (SMCs [1]; KQAGDV surfaces) [%] | matrix production compared with the non-adhesive control (RGES) (SMCs [1]; RGDS and KQAGDV modified surfaces, 1 ng/ml TGF-β in the media) | increase in matrix production per cell over that produced when no TGF-β was added (SMCs [1]; RGDS surfaces) [%] | matrix production compared with absence of TGF-β (SMCs [1]; [7]) | increase in matrix production per cell over that produced when no TGF-β was added (SMCs [1]; VAPG surfaces) [%] | hydroxyproline (collagen) production compared with no TGF-β (SMCs [2]) | cell numbers (proliferation) ([3]; TGF-β 1 or 5 ng/ml, over 2 days) | ECM protein production per cell (% of control) ([3]; TGF-β in the media at both 1 and 5 ng/ml, 2 days) | optimal concentrations to induce ECM production ([3]; aortic smooth muscle cells) | ECM protein production per cell (Auricular chondrocytes [4]; TGF-β in the media at concentrations above 1 ng/ml, 2 days) | cell numbers (proliferation) (Auricular chondrocytes [4]; TGF-β up to 100 ng/ml, over 2 days) | optimal concentration for ECM protein production per cell (Auricular chondrocytes [4]; auricular chondrocytes, 2 days) [ng/mL] | matrix production compared with unmodified TGF-β (SMCs [1]; [7]) | ECM protein production per cell [5, 8] | cell numbers (proliferation) [5, 9] | ECM protein production per cell (Auricular chondrocytes [6]; [8]) | cell numbers (proliferation) (Auricular chondrocytes [6]; [9])
transforming growth factor-beta [TGF-β] | 104 | increased over that seen with the non-adhesive control | 224 | greater amounts of matrix | 20 | More hydroxyproline | did not increase | increased | one and five | increased | did not increase | 25 |  |  |  |  | 
acryloyl-PEG-TGF-β [polymer-conjugated TGF-β] |  |  |  | greater amounts of matrix |  |  |  |  |  |  |  |  | less matrix was produced |  |  |  | 
O=C1O[C@H]([C@@H](O)CO)C(O)=C1O [ascorbic acid] |  |  |  |  |  |  |  |  |  |  |  |  |  | increased | did not increase | increased | did not increase
